Assay results taken from patent publication US10166267B1, “Multi-component formulations for the treatment of cognitive decline including Alzheimer's disease” (priority 2010, dated 2019).

What was measured:
primary chicken neurons = assay: MTT cell viability assay on primary chicken neurons, components applied for forty-eight hours; assay type: cell-based; conditions: for effect on cell viability: 48 h
Description: Further tests were conducted to assess the neuroprotective effects of a number of the components previously disclosed herein at various concentrations on primary chicken neurons, individually and in select combinations. The study components were applied to test specimens obtained on embryonic day 8 in vitro (“DIV8”) for a period of forty-eight hours, after which, the test specimens were evaluated in accordance with MTT assay to determine cell viability.
One day old fertilized eggs were stored under appropriate conditions until the start of breeding. On embryonic day zero, eggs were transferred to a breeding incubator and maintained under turning at 37.8° C. and 55% humidity until embryonic day eight.
All cell culture experiments were carried out under sterile conditions and all procedures were performed in a cell culture unit with special cell culture equipment. Glassware, forceps ad/or scissors were sterilized prior to experiments. Stock chemical solutions were obtained sterile, and final solution and culture medium were prepared fresh in a laminar airflow cabinet.
Neurons were prepared as follows. DIV8 embryos were transferred to plastic dish and decapitated. Bother hemispheres were removed, collected, and cleaned from any loose tissue. Hemispheres were then mechanically disassociated and 4.8×10^4 cells per well in a 96-well plate, and each well was seeded with 160 μL.
The cell culture medium for chicken telencephalon neurons consists of DMEM with 4.5 grams glucose, 5% Nu Serum, 0.01% gentamycin, and 2 mM L-glutamine. Cultures are maintained at 37° C., 95% humidity and 5% CO2.
The study component(s) and vehicle controls (“VC”) were applied to chicken neurons at DIVE for forty-eight hours. The viability of the chicken neurons at DIV10 were determined according to an MTT cell viability assay.
MTT Cell Viability Assay: The viability of the chicken neurons were determined by MTT assay using a plate reader at 570 nanometers as described in SOP MET004. The assay measures the mitochondrial dehydrogenase activity which reduces yellow MTT to dark blue formazan crystals. As the reaction is catalyzed only in living cells, the assay is used to determine cell viability. MTT is added to each well at a concentration of 0.5 milligrams per milliliter. After two hours, the MTT containing medium is aspirated. Cells are lysed in 3% SDS and the formazan crystals are dissolved in isopropanol/hydrochloric acid. Optical density is measured with a plate-reader at a wavelength of 570 nanometers.
Cell survival rate is expressed as optical density, and values are calculated as a percentage of the vehicle control values, the vehicle control being 100%.

[1] = cited from earlier work

COc1cc(/C=C/C(=O)CC(=O)/C=C/c2ccc(O)c(OC)c2)ccc1O [Curcumin, curcumin]
protective effects, curcumin alone vs in combination with MSM/FDP (primary chicken neurons; Part 3, curcumin applied alone): protective effects only in combinations with MSM/FDP but not when applied alone
effect on cell viability (primary chicken neurons; curcumin 50, 20, 10 and 5 μM, vs vehicle): negative effects on cell viability
effect on cell viability (primary chicken neurons; curcumin lowest concentration 0.01 μM, vs vehicle): positive influence on cell viability

C[S+](C)[O-] [DMSO, Dimethyl sulfoxide]
effect on cell viability (primary chicken neurons; DMSO 5%, vs vehicle treated cells): toxic effects
effect on cell viability (primary chicken neurons; DMSO, all other concentrations tested, vs vehicle treated cells): minor negative effect on cell viability
DMSO converted to MSM in the body [1]: approximately 15%

O=C(COP(=O)(O)O)[C@@H](O)[C@H](O)[C@H](O)COP(=O)(O)O [FDP, Fructose 1,6-diphosphate]
effect on cell viability (primary chicken neurons; FDP highest concentrations 50, 10 and 5 mM): toxic effects
effect on cell viability (primary chicken neurons; FDP, other applied concentrations): no significant effects

CS(C)(=O)=O [MSM, Methylsulfonylmethane]
concentration of MSM relative to DMSO achieving the same effects on cell viability (primary chicken neurons; MSM 0.1 μM vs DMSO 12.8 μM in combinations): 128 times less concentrated
effects on cell viability in the combinations, MSM vs DMSO (primary chicken neurons; MSM 0.0001 mM = 0.1 μM vs DMSO 12.8 μM = 0.0001%): same effects on cell viability
effect on cell viability (primary chicken neurons; MSM highest concentration 50 mM): minor negative effect
tolerance by cells when applied alone (primary chicken neurons; MSM vs DMSO, each applied alone): tolerated MSM better than DMSO
effect on cell viability (primary chicken neurons; MSM, all other applied concentrations, increase seen at 1 and 0.01 mM): no or even a slight increase in cell viability

Oc1ccc(C=Cc2cc(O)cc(O)c2)cc1 [Resveratrol, resveratrol]
effect on cell viability (primary chicken neurons; resveratrol 20, 10 and 5 μM, vs vehicle): positive effects on cell viability
effect on cell viability (primary chicken neurons; resveratrol 50 and 100 μM, vs vehicle): toxic to cells
cell viability compared to resveratrol (20 μM) plus DMSO/FDP (primary chicken neurons; resveratrol alone 20 μM): even better effects on cell viability
